# Reference: PMC3492849 (The Febs Journal, 2012)
# Biological target: PKD1L3/PKD2L1 (Mus musculus, UniProt A2A259+Q2EG98)
# Test: Fura-2 Ca2+ imaging, neutralization method
# Assay type: cell-based
# Chain of PKD1L3/PKD2L1 (A2A259 whole entry): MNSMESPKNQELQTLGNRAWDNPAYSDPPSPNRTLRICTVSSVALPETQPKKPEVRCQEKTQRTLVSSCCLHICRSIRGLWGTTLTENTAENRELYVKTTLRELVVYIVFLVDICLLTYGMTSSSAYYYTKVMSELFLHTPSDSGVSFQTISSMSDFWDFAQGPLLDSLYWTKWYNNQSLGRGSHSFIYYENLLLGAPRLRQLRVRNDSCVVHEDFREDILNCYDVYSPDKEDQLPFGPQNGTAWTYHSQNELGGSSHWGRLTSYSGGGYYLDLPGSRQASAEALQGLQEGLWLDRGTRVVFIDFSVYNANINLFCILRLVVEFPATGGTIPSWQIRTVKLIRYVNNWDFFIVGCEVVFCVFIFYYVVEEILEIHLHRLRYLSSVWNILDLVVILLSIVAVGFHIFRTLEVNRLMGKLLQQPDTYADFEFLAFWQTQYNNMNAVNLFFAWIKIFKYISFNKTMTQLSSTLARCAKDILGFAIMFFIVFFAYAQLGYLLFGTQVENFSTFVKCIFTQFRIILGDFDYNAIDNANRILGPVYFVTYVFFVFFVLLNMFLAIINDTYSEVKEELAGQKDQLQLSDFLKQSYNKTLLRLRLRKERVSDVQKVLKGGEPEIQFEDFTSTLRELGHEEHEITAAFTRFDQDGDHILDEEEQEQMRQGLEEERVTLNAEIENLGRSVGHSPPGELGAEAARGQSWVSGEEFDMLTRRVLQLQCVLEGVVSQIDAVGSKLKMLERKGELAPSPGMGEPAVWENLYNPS
# Chain of PKD1L3/PKD2L1 (Q2EG98 21-2151): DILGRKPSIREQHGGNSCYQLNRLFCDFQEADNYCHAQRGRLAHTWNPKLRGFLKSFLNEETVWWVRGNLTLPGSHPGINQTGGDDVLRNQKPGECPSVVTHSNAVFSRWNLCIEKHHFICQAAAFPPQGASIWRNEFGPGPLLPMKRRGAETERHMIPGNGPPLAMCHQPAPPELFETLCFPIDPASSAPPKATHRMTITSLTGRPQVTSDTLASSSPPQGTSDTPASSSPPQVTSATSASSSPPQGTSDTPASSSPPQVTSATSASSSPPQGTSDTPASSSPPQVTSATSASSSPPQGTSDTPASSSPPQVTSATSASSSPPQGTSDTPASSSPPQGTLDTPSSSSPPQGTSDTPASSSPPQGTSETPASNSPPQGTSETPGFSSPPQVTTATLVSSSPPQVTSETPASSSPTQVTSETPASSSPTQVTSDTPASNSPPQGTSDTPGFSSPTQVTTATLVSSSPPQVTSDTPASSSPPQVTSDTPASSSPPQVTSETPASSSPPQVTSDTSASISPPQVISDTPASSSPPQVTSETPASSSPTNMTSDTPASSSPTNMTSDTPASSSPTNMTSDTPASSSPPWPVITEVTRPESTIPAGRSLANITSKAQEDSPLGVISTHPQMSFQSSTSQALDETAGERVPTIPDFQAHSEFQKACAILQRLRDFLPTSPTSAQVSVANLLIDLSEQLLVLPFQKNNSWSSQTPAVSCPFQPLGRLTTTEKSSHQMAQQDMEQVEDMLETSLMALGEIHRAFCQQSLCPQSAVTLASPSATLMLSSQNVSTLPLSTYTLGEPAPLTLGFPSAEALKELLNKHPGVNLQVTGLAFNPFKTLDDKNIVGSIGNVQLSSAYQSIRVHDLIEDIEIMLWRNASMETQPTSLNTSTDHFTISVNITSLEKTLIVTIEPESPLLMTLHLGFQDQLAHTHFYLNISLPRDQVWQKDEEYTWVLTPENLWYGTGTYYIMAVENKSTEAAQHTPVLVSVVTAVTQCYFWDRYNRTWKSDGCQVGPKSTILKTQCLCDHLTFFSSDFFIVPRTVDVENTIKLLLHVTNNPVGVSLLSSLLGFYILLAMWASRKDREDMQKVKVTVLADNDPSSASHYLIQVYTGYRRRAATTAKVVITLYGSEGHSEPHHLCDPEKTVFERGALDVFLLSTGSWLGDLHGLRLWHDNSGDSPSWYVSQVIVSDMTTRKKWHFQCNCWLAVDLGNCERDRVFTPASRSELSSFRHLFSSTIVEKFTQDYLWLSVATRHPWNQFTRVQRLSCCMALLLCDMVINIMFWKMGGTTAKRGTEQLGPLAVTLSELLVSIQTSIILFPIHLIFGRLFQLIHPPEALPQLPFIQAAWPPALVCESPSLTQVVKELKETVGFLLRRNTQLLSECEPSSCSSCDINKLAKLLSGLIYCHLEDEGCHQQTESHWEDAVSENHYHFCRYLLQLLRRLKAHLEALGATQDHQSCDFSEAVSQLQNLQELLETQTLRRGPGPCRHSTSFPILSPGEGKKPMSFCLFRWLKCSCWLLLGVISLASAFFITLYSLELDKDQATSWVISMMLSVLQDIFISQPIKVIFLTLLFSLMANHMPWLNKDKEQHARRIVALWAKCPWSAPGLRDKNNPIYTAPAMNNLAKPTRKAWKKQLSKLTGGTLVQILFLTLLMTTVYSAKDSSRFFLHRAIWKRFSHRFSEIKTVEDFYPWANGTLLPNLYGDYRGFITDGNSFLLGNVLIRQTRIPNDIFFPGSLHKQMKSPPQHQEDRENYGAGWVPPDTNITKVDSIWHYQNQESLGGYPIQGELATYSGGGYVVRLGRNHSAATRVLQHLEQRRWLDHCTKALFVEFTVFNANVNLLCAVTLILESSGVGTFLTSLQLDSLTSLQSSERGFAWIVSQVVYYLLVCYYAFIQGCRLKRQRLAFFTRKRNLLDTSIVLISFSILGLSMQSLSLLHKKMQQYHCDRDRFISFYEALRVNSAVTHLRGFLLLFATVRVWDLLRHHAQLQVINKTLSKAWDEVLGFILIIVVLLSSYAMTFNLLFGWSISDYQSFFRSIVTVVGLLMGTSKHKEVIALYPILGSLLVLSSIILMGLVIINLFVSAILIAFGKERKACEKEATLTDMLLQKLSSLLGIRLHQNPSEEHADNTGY
row,IC50 [µM],SMILES
1,85.9 ± 34.7,CCCCC[C@H](O)CC(=O)CCc1ccc(O)c(OC)c1 [6-gingerol]
2,48.1 ± 10.8,COc1ccc(CCCOC(Cn2ccnc2)c2ccc(OC)cc2)cc1 (stereo not shown) [SKF96365]
3,32.5 ± 10.2,COc1cc(CNC(=O)CCCC/C=C/C(C)C)ccc1O [capsaicin]
4,55 ± 14.2,COc1cc(CNC(=O)CCCCCCC(C)C)ccc1O [dihydrocapsaicin]
